Reference: publication PMC10331789 (Journal of natural products, 2023)

Target: Na+/K+-ATPase (NKA)
Assay: luminescent ADP detection assay
Format: biochemical, Sus scrofa

With `CO[C@H]1C[C@H](O[C@H]2CC[C@@]3(C)[C@@H](C2)C[C@@H]2O[C@]24[C@@H]3[C@H](O)C(=O)[C@]2(C)[C@@H](C3=CC(=O)OC3)CC[C@]42O)O[C@@H](C)[C@@H]1O` [compound 1, (–)-cryptanoside A] the IC50 was 1.2 µM.
